Source: patent US7407745B1, “Method for screening anticancer agent” (Chugai Seiyaku Kabushiki Kaisha, priority 1999, dated 2008)

Assays:
GAL4-Sp3 = experiment: Reporter assay using the GAL4 binding sequence (pG5-luc), GAL4-Sp3, MG63 cells; type: cell-based, human; settings: GAL4-Sp3 (full-length Sp3, amino acids 1-653), TSA 500 ng/ml, 24 hours
Text: This yielded pM-Sp1, pM-Sp3, pM-DNSp1, and pM-DNSp3, respectively. Each of the Sp1 and Sp3 genes was amplified by PCR. Specifically, pM-Sp1 production employed Sp1-S (5′-acaggtgagcttga-3′/SEQ ID NO: 4) and Sp1-AS (5′-tcagaagccattgcc-3′/SEQ ID NO: 5) as primers and used pPacSp1 as template for amplification (Kadonaga, J. T. et al., (1987) Cell 51:1079-1090). pM-DNSp1 production employed DNSp1-S (5′-[…]-3′/SEQ ID NO: 6) and DNSp1-AS (5′-gaagcatgcacctgc-3′/SEQ ID NO: 7) as primers and used pM-Sp1 as template for amplification (Kadonaga, J. T. et al., (1987) Cell 51: 1079-1090). pM-Sp3 production employed Sp3-18F (5′-[…]-3′/SEQ ID NO: 8) and Sp3-2R (5′-[…]-3′/SEQ ID NO: 9) as primers and used Marathon-Ready cDNA (Human Fetal Liver) (Clontech, Cat. #7403-1) as template for amplification (Chris, K. et al., (1992) J. Biol. Chem. 12: 4251-4261). pM-DNSp3 production employed Sp3-11F (5′-[…]-3′/SEQ ID NO: 10) and Sp3-2R (SEQ ID NO: 9) as primers and used pM-Sp3 as template for amplification (Chris, K. et al., (1992) J. Biol. Chem. 12: 4251-4261). All PCRs were carried out by performing 30 cycles of 94° C. for 1 minute, 55° C. for 30 seconds, and 72° C. for 30 seconds. The resulting PCR amplified product was inserted into a pM vector and the nucleotide sequence was confirmed using a DNA sequencer, ABI PRISM 355 (Applied Bio System). […]

[1] = system: consensus Sp1 binding sequence; experiment: Luciferase reporter assay of 3xSp1 binding sequence (Sp1-luc, mtSp1-luc) with dominant negative Sp3, MG63 cells; type: cell-based, human
[2] = system: Sp1 binding sequence in the p21/WAF1/Cip1 promoter; experiment: Gel shift assay (EMSA) with nuclear extracts of TSA-treated and untreated MG63 cells; set-up: species or system human; settings: 500 ng/ml TSA for 24 hours vs untreated
Method: First, MG63 cells were incubated at 37° C. in a humidified atmosphere of 5% CO2 using DMEM medium (GIBCO BRL) containing 10% fetal calf serum (GIBCO BRL). Nuclear extracts of these cells were prepared from both TSA-treated and untreated cells, according to the method of Dignam et al. (Dignam, J. D. et al., (1983) Nucleic Acids Res. 11:1475-1489). First, cells cultured in a dish (100 mm) were incubated for 24 hours with 500 ng/ml TSA (Wako). This was then washed twice with cold PBS containing 0.5 mM 4-(2-aminoethyl)benzenesulfonyl fluoride HCl (p-ABSF) (Wako), the cells were scraped from the plate, and suspended in 10 mM Hepes/KOH buffer (pH7.9) containing 10 mM KCl, 1.5 mM MgCl2, 0.5 mM DTT, 5 mM NaF, 5 mM NaVO4, and 0.5 mM p-ABSF. After placing on ice for 10 minutes, the cells were disrupted using a Dounce homogenizer. […]
Next, based on the TSA-dependent promoter sequence (5′-CGGGTCCCGCCTCCTT-3′/SEQ ID NO: 1) located −87 to −72 bp from the transcription start site of the p21/WAF1/Cip1 gene, oligonucleotides (5′-[…]-3′/SEQ ID NO: 2, and 5′-[…]-3′/SEQ ID NO: 3) were synthesized. […] The reaction solution was resolved by electrophoresis on a 6% acrylamide gel and the proteins that bind to the p21/WAF1/Cip1 probe were detected using BAS 2000 (Fujix).

[3] = system: GAL4-Sp3 deletion mutant proteins; experiment: Reporter assay using the GAL4 binding sequence (pG5-luc), GAL4-Sp3 deletion mutants, MG63 cells; type: cell-based, human; settings: TSA 500 ng/ml, 24 hours
Text: This yielded pM-Sp1, pM-Sp3, pM-DNSp1, and pM-DNSp3, respectively. Each of the Sp1 and Sp3 genes was amplified by PCR. Specifically, pM-Sp1 production employed Sp1-S (5′-acaggtgagcttga-3′/SEQ ID NO: 4) and Sp1-AS (5′-tcagaagccattgcc-3′/SEQ ID NO: 5) as primers and used pPacSp1 as template for amplification (Kadonaga, J. T. et al., (1987) Cell 51:1079-1090). pM-DNSp1 production employed DNSp1-S (5′-[…]-3′/SEQ ID NO: 6) and DNSp1-AS (5′-gaagcatgcacctgc-3′/SEQ ID NO: 7) as primers and used pM-Sp1 as template for amplification (Kadonaga, J. T. et al., (1987) Cell 51: 1079-1090). pM-Sp3 production employed Sp3-18F (5′-[…]-3′/SEQ ID NO: 8) and Sp3-2R (5′-[…]-3′/SEQ ID NO: 9) as primers and used Marathon-Ready cDNA (Human Fetal Liver) (Clontech, Cat. #7403-1) as template for amplification (Chris, K. et al., (1992) J. Biol. Chem. 12: 4251-4261). pM-DNSp3 production employed Sp3-11F (5′-[…]-3′/SEQ ID NO: 10) and Sp3-2R (SEQ ID NO: 9) as primers and used pM-Sp3 as template for amplification (Chris, K. et al., (1992) J. Biol. Chem. 12: 4251-4261). All PCRs were carried out by performing 30 cycles of 94° C. for 1 minute, 55° C. for 30 seconds, and 72° C. for 30 seconds. The resulting PCR amplified product was inserted into a pM vector and the nucleotide sequence was confirmed using a DNA sequencer, ABI PRISM 355 (Applied Bio System). As a control for the transfection test, pM that only expresses the GAL4 DNA binding domain was employed. The reporter plasmid (pG5-luc) used to indicate the dependence of transcriptional activation, on GAL4 was pGL3-Basic Vector (Promega), which carried the 5×GAL4 binding sequence, E1B minimum promoter, and TATA sequence, upstream of the luciferase gene.
The expression vector described above encoding various Sp1 or Sp3 GAL4 fusion proteins and the abovementioned vector carrying a luciferase reporter gene downstream of the consensus 5×GAL4 binding sequence were cotransfected into MG63 cells using SuperFect following the method by QIAGEN. Namely, cells were seeded at a density of 0.8×10^5 cells/well in a 12-well plate. After 24 hours, a pre-mixed reaction solution containing 0.5 μg of reporter plasmid, 2.5 μg of expression vector, and SuperFect were added to the MG63 cells and the mixture was reacted for 2 hours. Subsequently, the cells were cultured for 24 hours under normal culture conditions, cultured for another 24 hours with or without (control) 500 ng/ml of TSA, and then, the cells were lysed. Using luciferase substrate (Promega), luciferase activity of the cell lysates was measured using LB-96P (Berthold). The measured values were normalized and were expressed as activity per amount of protein. Transcriptional induction due to TSA treatment was calculated as a ratio with respect to the TSA-untreated control value (activation amplification by TSA).
Next, reporter assay was performed using various Sp3 deletion mutants fused to the GAL4 DNA binding domain in order to identify the TSA responsive region of Sp3. First, pM-Sp3 (1-398), pM-Sp3 (81-398), pM-Sp3 (161-398), pM-Sp3 (241-398), pM-Sp3 (1-80), pM-Sp3 (1-160), pM-Sp3 (1-240), and pM-Sp3 (1-320) were prepared. They respectively carry regions corresponding to the indicated amino acid numbers. […]
As a control for the transfection test, pM expressing only the GAL4 DNA binding domain was used. […] Transfection using these genes followed the same method as described above, and the occurrence of transcriptional induction due to TSA treatment in these mutants was monitored.

p21/WAF1/Cip1 promoter = experiment: Luciferase reporter assay of p21/WAF1/Cip1 promoter (pWWP, pWPdel-BstXI) with dominant negative Sp3, MG63 cells; type: cell-based, human; settings: pWWP and pWPdel-BstXI reporters, forced expression of DNSp3 (pCMV-DNSp3), TSA 500 ng/ml
[4] = system: all-trans-retinoic acid resistant acute promyelocytic leukemia; settings: in combination with all-trans retinoic acid; cited from earlier work

Molecule: CC(/C=C/C(=O)NO)=C\[C@@H](C)C(=O)c1ccc(N(C)C)cc1 [TSA, Trichostatin A]
- transcriptional induction of the luciferase gene by TSA (ratio to TSA-untreated control) (GAL4-Sp3): strong transcriptional induction
- TSA dependent transcriptional induction driven by the consensus Sp1 binding sequence ([1]; Sp1-luc reporter, forced expression of DNSp3, TSA 500 ng/ml): marked repression
- transcriptional induction by TSA ([1]; mtSp1-luc reporter (mutated Sp1 binding sequence), TSA 500 ng/ml): did not take place
- amount of DNA bound by Sp1 and Sp3 [2]: a difference in the amount of DNA bound by Sp1 and Sp3 due to the presence or absence of TSA treatment could not be observed
- TSA dependent transcriptional induction ([3]; GAL4-DNSp3 (amino acids 399-653)): no longer showed TSA dependent transcriptional induction
- TSA dependent transcriptional induction ([3]; GAL4-Sp3 (1-80)): induction due to TSA treatment disappeared
- TSA dependent transcriptional induction ([3]; GAL4-Sp3 (1-398)): stronger than with GAL4-Sp3
- TSA dependent transcriptional induction ([3]; GAL4-Sp3 (81-160) alone): almost no activity
- TSA dependent transcriptional induction ([3]; GAL4-Sp3 (241-398)): induction due to TSA treatment disappeared
- transcriptional induction of p21/WAF1/Cip1 by TSA (p21/WAF1/Cip1 promoter): remarkably repressed by DNSp3

Molecule: sodium phenylbutyrate
- remission of leukemia [4]: complete remission
